# Test results as given in patent publication US9359281B2, “Enantiomers of 2-hydroxy derivatives of fatty acids” (UNIVERSITAT DE LES ILLES BALEARS, priority 2011, dated 2016).
# System: A549 cells
# Experiment: Cell growth inhibition, A549
# Assay type: cell-based, human
# Conditions: A549, sodium salt form
# From the text: At this respect, concentrations which inhibit growth of tumour cells (IC50) are lower for the enantiomer S ([−]) in all studied tumour lines (Table 5). […] In all of the cases, the molecules employed were in the form of sodium salt.
row,Compound,IC50
1,"CC/C=C\C/C=C\C/C=C\CCCCCCC(O)C(=O)O (racemic) [Racemic 2OH18:3a, 2-hydroxy-α-linoleic acid]",219 ± 15.4 µM
2,CC/C=C\C/C=C\C/C=C\CCCCCCC(O)C(=O)O (stereo not drawn) [[−]2OH18:3a] [2-hydroxy-α-linoleic acid],146 ± 10.9 µM
3,CCCCC/C=C\C/C=C\CCCCCCC(O)C(=O)O (stereo not drawn) [[+]2OH18:2] [2-hydroxylinoleic acid],186 ± 21.9 µM
4,CCCCC/C=C\C/C=C\C/C=C\CCCC(O)C(=O)O (stereo not drawn) [[+]2OH18:3g] [2-hydroxy-γ-linoleic acid],342 ± 31.5 µM
5,CC/C=C\C/C=C\C/C=C\CCCCCCC(O)C(=O)O (stereo not drawn) [[+]2OH18:3a] [2-hydroxy-α-linoleic acid],351 ± 22.7 µM
6,"CCCCC/C=C\C/C=C\C/C=C\CCCC(O)C(=O)O (racemic) [Racemic 2OH18:3g, 2-hydroxy-γ-linoleic acid]",206 ± 21.7 µM
7,CCCCCC/C=C\CCCCCCC(O)C(=O)O (stereo not drawn) [[+]2OH16:1] [2-hydroxypalmitoleic acid],299 ± 34.2 µM
8,CCCCC/C=C\C/C=C\CCCCCCC(O)C(=O)O (stereo not drawn) [[−]2OH18:2] [2-hydroxylinoleic acid],69.9 ± 11.2 µM
9,CCCCCC/C=C\CCCCCCC(O)C(=O)O (stereo not drawn) [[−]2OH16:1] [2-hydroxypalmitoleic acid],110 ± 14 µM
10,CCCCC/C=C\C/C=C\C/C=C\CCCC(O)C(=O)O (stereo not drawn) [[−]2OH18:3g] [2-hydroxy-γ-linoleic acid],155 ± 7.5 µM

# Same assay, conditions: Homo sapiens, A549, A549, sodium salt form
row,Compound,IC50
1,"CCCCCC/C=C\CCCCCCC(O)C(=O)O (racemic) [Racemic 2OH16:1, 2-hydroxypalmitoleic acid]",193 ± 9.3 µM
2,"CCCCC/C=C\C/C=C\CCCCCCC(O)C(=O)O (racemic) [Racemic 2OH18:2, 2-hydroxylinoleic acid]",105 ± 4.1 µM
